Reference: patent US10456388B2, “Antihistamine for use in treatment of breast cancer” (BELINA PHARMA AB, priority 2015, dated 2019)
Where two headings read alike, the source gives them in different places.

Key:
[1] = system: breast cancer cases; experiment: Replication study, extended breast cancer material Swedish Cancer Registry 2000-2013 (n=103 500 cases), late entry models; format: in vivo, human; settings: for Breast cancer survival HR / Overall survival HR: use after diagnosis, adjusted for age, tumour stage, late entry models; for BC survival HR: extended study, real patient data; for Survival of users compared with non-users, in words: replication study, Table 10; for Breast cancer survival HR by desloratadine use: late entry model
Procedure: Using an extended breast cancer material of all cases from the Swedish Cancer Registry 2000-2013 (n=103 500 cases) linking the data with the Drug Prescription Registry a replication study was carried out. The data from this extended study can be found in Tables 10 and 11. With the larger set of data, the effect for each individual antihistamine becomes more pronounced.
Using an extended breast cancer material of all cases from the Swedish Cancer Registry 2000-2013 (n=103 500 cases) linking the data with the Drug Prescription Registry a replication study was carried out. The data from this extended study are represented in tables 10 and 11.
Using an extended breast cancer material of all cases from the Swedish Cancer Registry 2000-2013 (n=103 500 cases) linking the data with the Drug Prescription Registry, a replication study was carried out, as shown in table 10.

[2] = system: women with invasive BC; settings: for BC specific survival compared to controls (Kaplan-Meier, univariate): ever-use model, FIGS. 1 to 3; for Dead in BC (Yes): groups by main antihistamine used, all patients from 2000-2008
[3] = system: women with invasive BC; settings: for Hazard ratio Exp(B), ER Negative Breast Cancer / Hazard ratio Exp(B), ER Positive Breast Cancer / BC specific survival compared to controls (Kaplan-Meier, univariate): late entry model; for Hazard ratio Exp(B), ER Negative Breast Cancer / Hazard ratio Exp(B), ER Positive Breast Cancer / Hazard ratio Exp(B), Cox proportional hazard - late entry model: adjusted for age at BC diagnosis and TN-stage; for HR (CI), late entry model: adjusted for age at BC diagnosis and TN; for Hazard ratio Exp(B), Cox proportional hazard - late entry model: ever-use vs controls, cases before 1st of Jul. 2005 and unknown N-status censored, Table 5; for Dead in BC (Yes): groups by main antihistamine used, patients from 1st of Jul. 2005-31st of Dec. 2008; for BC specific survival compared to controls (Kaplan-Meier, univariate): FIGS. 4 and 5
[4] = multi dose studies with 100 mg per day; cited from earlier work
[5] = Survival 2009-2014 (title: 2009-2013)

SMILES	Breast cancer survival HR ([1]; Survival 2005-2008)	Overall survival HR ([1]; Survival 2005-2008)	Breast cancer survival HR [1, 5]	Overall survival HR [1, 5]	BC specific survival compared to controls (Kaplan-Meier, univariate) [2]	Dead in BC (Yes) [2]	Hazard ratio Exp(B), ER Negative Breast Cancer [3]	Hazard ratio Exp(B), ER Positive Breast Cancer [3]	HR (CI), late entry model [3]	Hazard ratio Exp(B), Cox proportional hazard - late entry model [3]	Dead in BC (Yes) [3]	BC specific survival compared to controls (Kaplan-Meier, univariate) [3]	BC survival HR [1]	Survival of users compared with non-users, in words [1]	Clinical side effects [4]	Breast cancer survival HR by desloratadine use ([1]; <400 days use vs never)	Survival HR, users compared with non users ([1]; years before 2009)	Breast cancer survival HR by desloratadine use ([1]; ≥400 days use vs never)	Effect on breast cancer survival rate by treatment period (FIG. 7) ([3]; use only after the BC diagnosis)	Effect on breast cancer survival rate by treatment period (FIG. 7) ([3]; use only before the BC diagnosis)
CCOC(=O)N1CCC(=C2c3ccc(Cl)cc3CCc3cccnc32)CC1 [Loratadine, loratadine]	0.77	1.05	0.93	0.86	clear, statistically significant, longer BC specific survival	11.7%	.945	1.087	0.74 (0.60-0.93)	.816	10.4%	statistically significant longer BC specific survival								
CN1CCC[C@@H]1CCO[C@](C)(c1ccccc1)c1ccc(Cl)cc1 [Klemastine, klemastine]	1.43	2.07	0.94	1.08	clear, statistically significant, longer BC specific survival	13.8%			0.98 (0.80-1.19)		14.3%	non-statistically significant longer BC specific survival	1.12	negatively affects survival						
CC(C)(C(=O)O)c1ccc(C(O)CCCN2CCC(C(O)(c3ccccc3)c3ccccc3)CC2)cc1 (centres unmarked) [Fexofenadine, fexofenadine]	1.20	1.40	0.85	0.65	clear, statistically significant, longer BC specific survival	9.0%	.316	.826	0.73 (0.30-1.76)	.802	11.6%	non-statistically significant longer BC specific survival								
O=C(O)COCCN1CCN(C(c2ccccc2)c2ccc(Cl)cc2)CC1 (centres unmarked) [Cetirizine, cetirizine]	1.08	1.41	1.21	1.09	initially had a higher survival percentage compared to controls, but with time it became lower compared to controls	18.0%	1.491	2.166	1.13 (0.96-1.33)	1.194	16.5%	non-statistically significant longer BC specific survival	1.28	negatively affects survival						
CC(C)(C)c1ccc(C(=O)CCCN2CCC(OC(c3ccccc3)c3ccccc3)CC2)cc1 [Ebastin, ebastin]	0.25	0.48	0.75	0.91	clear, statistically significant, longer BC specific survival	6.7%			0.50 (0.22-1.12)		5.7%	statistically significant longer BC specific survival		better overall and BC specific survival	did not show any further clinical side effects					
Clc1ccc2c(c1)CCc1cccnc1C2=C1CCNCC1 [Desloratadine, desloratadine]	0.47	0.47	0.74	0.71	clear, statistically significant, longer BC specific survival	7.1%					8.1%	statistically significant longer BC specific survival		better overall and BC specific survival		0.94	0.63	0.62	clear positive effects can be shown	no positive effects on breast cancer survival rate can be established
